The target of test [1] is T1, LasR (Pseudomonas aeruginosa, UniProt P25084).
T1 construct: expressed in transfected cells; host or cells: E. coli JLD271
The test is described as follows: E. coli reporter gene primary agonism assay, LasR. The format is cell-based. As to conditions: compounds at 100 mm; E. coli reporter strain JLD271/pJN105L/pSC11; 100 mm OdDHL = 100%; error ±10%. As to the method: (§1) Percent agonism of a given non-native inducer in a given bacterium and QS system receptor is measured with resepct to the maximum level of agonism (activation) by the native ligand of that receptor in the given bacterium. Percent antagonism is measured in competitive assays. The QS system of interest is activated to 100% with added or endogenous native ligand and the % antagonism of the non-native inducer is assessed with respect to 100% activation by the native inducer. The native ligand which induces LasR is OdDHL, which induces RhlR is BHL and which induces PqsR is PQS. As described herein and in cited references, assays for assessment of % agonism or % atangonism may be performed in E. coli systems (heterologous) or in the bacterium of interest, e.g., Pseudomonas. Dependent upon the assay system employed native ligand may be endogenously present or it may be exogenously supplied to the assay system. […] In antagonism assays using the native strains with functional QS systems, e.g., those of P. aeruginosa, endogenous native ligand is made in the system, so no native ligand is added. In native strains having one or more non-functional QS systems (mutant strains), e.g., P. aeruginosa mutants with non-functional QS systems, native ligand is added at about 10-100× the EC50 of the native ligand. In the agonism assay, native ligand is added as a control. Details of the assays are provided herein in Example 9 and in references cited in Example 9.
For orientation: In a reporter assay the amount or activity of a reporter protein is the signal.

The target in test [2] is T2, RhlR (Pseudomonas aeruginosa, UniProt P54292).
T2 construct: expressed in transfected cells; host or cells: E. coli JLD271
The test is described as follows: E. coli reporter gene primary agonism assay, RhlR. The format is cell-based. The note with it: compounds at 100 mm; 900 mm BHL = 100%; error ±10%; selected data reproduced from Welsh et al., 2015. Here is the method:
as §1

For test [3], the system named is P. aeruginosa (PAO1). Nature of the test: Pyocyanin assay. As to conditions: MOPS Glutamate and Glucose media, complete or iron/phosphate depleted, 17 h, 100 μM (compounds 1, 2, 3), 25 μM (compound 4), relative to DMSO. The format is cell-based, Pseudomonas aeruginosa. As to the method:
A. Pyocyanin Assay Protocol. The amount of pyocyanin in P. aeruginosa culture supernatants was measured following a reported protocol (O'Loughlin et al., 2013) with modifications. A 10 mL overnight culture of P. aeruginosa PAO1 was grown for 16 h. DMSO stock solutions of test compounds (20 mM) were prepared, and 10 μL or 5 μL aliquots were added to sterile 15 mL borosilicate glass test tubes. An inoculating culture was prepared by diluting the overnight culture 1:100 into freshly prepared assay medium (see above), and 2 mL aliquots of this subculture were added to each test tube (0.5% DMSO, final). The cultures were grown for 17 h, and the final cell density measured by reading OD600. Relative pyocyanin levels were measured by first pelleting 1.5 mL of well-mixed culture at 4,000 g for 10 min, transferring 200 μL of the resulting supernatant to a clear, plastic 96-well microtiter plate, and reading absorbance at 695 nm. Media background absorbance (measured from a “no bacteria” control) was subtracted, the resulting values growth normalized by dividing by the final OD600378, and the data plotted relative to a DMSO-treated positive control. B. Rhamnolipid Assay Protocol. Rhamnolipid was quantified following a reported protocol (Koch et al., 1991) with modifications. Assay cultures were prepared and grown in an identical manner to the pyocyanin assay above. Aliquots of the final culture supernatant (1 mL) were transferred to 1 dram glass vials and extracted twice with 1 mL diethyl ether. The pooled organic fractions were evaporated to dryness, and the resulting residue reconstituted in 200 μL de-ionized water. In a 1.7 mL plastic centrifuge tube, 50 μL of this extract was diluted into 450 μL of a solution of 0.19% (w/v) orcinol in 50% (v/v) concentrated H2SO4 (or 20 μL extract into 480 μL orcinol solution for cultures grown in MOPS Glucose medium). The tubes were vortexed thoroughly to mix and incubated in an 80° C. heating block for 30 min. After briefly cooling to room temperature, 200 μL of the resulting yellow to yellow-orange solution was transferred to a clear 96-well microtiter plate, and the absorbance at 421 nm measured. Media background absorbance (measured from a “no bacteria” control) was subtracted, the resulting values growth normalized by dividing by the final OD600, and the data plotted relative to a DMSO-treated positive control. C. Elastase B Assay Protocol. The amount of elastase B in P. aeruginosa culture supernatants was measured following a reported protocol (Geske et al., 2007) with modifications. Assay cultures were prepared and grown in an identical manner to the pyocyanin assay above. Aliquots of the final culture supernatant (50 μL) were added to the wells of a clear, plastic 96-well plate. To each well, 150 μL of 0.5% (w/v) elastin-congo red conjugate (Elastin Products Co.) in Tris buffer (10 mM Tris-HCl, 1 mM CaCl2, pH 7.2) was added. The plate was sealed with a polypropylene storage mat (Costar 3080) and incubated in a 37° C. shaking incubator (200 rpm) attached to a Labquake rotator for 12 h (for experiments in SCFM2) or 24 h (for experiments in MOPS medium). To quantify elastase B activity, the undigested elastin was pelleted by centrifugation of the assay plate at 1,500 g for 10 min, after which 100 μL of the supernatant was transferred to a new, clear 96-well plate, and the absorbance at 490 nm measured. Media background absorbance (measured from a “no bacteria” control) was subtracted, the resulting values growth normalized by dividing by the final OD600, and the data plotted relative to a DMSO-treated positive control.

The subject of test [4] is P. aeruginosa (PAO1). The test is described as follows: Rhamnolipid assay. The note with it: MOPS Glutamate and Glucose media, complete or iron/phosphate depleted, 17 h, 100 μM (compounds 1, 2, 3), 25 μM (compound 4), relative to DMSO. The format is cell-based, Pseudomonas aeruginosa. As to the method: (§2) A. Pyocyanin Assay Protocol. The amount of pyocyanin in P. aeruginosa culture supernatants was measured following a reported protocol (O'Loughlin et al., 2013) with modifications. A 10 mL overnight culture of P. aeruginosa PAO1 was grown for 16 h. DMSO stock solutions of test compounds (20 mM) were prepared, and 10 μL or 5 μL aliquots were added to sterile 15 mL borosilicate glass test tubes. An inoculating culture was prepared by diluting the overnight culture 1:100 into freshly prepared assay medium (see above), and 2 mL aliquots of this subculture were added to each test tube (0.5% DMSO, final). The cultures were grown for 17 h, and the final cell density measured by reading OD600. Relative pyocyanin levels were measured by first pelleting 1.5 mL of well-mixed culture at 4,000 g for 10 min, transferring 200 μL of the resulting supernatant to a clear, plastic 96-well microtiter plate, and reading absorbance at 695 nm. Media background absorbance (measured from a “no bacteria” control) was subtracted, the resulting values growth normalized by dividing by the final OD600378, and the data plotted relative to a DMSO-treated positive control. B. Rhamnolipid Assay Protocol. Rhamnolipid was quantified following a reported protocol (Koch et al., 1991) with modifications. Assay cultures were prepared and grown in an identical manner to the pyocyanin assay above. Aliquots of the final culture supernatant (1 mL) were transferred to 1 dram glass vials and extracted twice with 1 mL diethyl ether. The pooled organic fractions were evaporated to dryness, and the resulting residue reconstituted in 200 μL de-ionized water. […] After briefly cooling to room temperature, 200 μL of the resulting yellow to yellow-orange solution was transferred to a clear 96-well microtiter plate, and the absorbance at 421 nm measured. Media background absorbance (measured from a “no bacteria” control) was subtracted, the resulting values growth normalized by dividing by the final OD600, and the data plotted relative to a DMSO-treated positive control. […] The amount of elastase B in P. aeruginosa culture supernatants was measured following a reported protocol (Geske et al., 2007) with modifications. […] To quantify elastase B activity, the undigested elastin was pelleted by centrifugation of the assay plate at 1,500 g for 10 min, after which 100 μL of the supernatant was transferred to a new, clear 96-well plate, and the absorbance at 490 nm measured. Media background absorbance (measured from a “no bacteria” control) was subtracted, the resulting values growth normalized by dividing by the final OD600, and the data plotted relative to a DMSO-treated positive control.

Test [5] deals with P. aeruginosa (PAO1). The test is described as follows: Elastase B assay. The format is cell-based, Pseudomonas aeruginosa. The note with it: MOPS Glutamate and Glucose media, complete or iron/phosphate depleted, 17 h, 100 μM (compounds 1, 2, 3), relative to DMSO. As to the method:
as §2

Experimental findings from patent US10322112B2, “Compound combinations for attenuation of bacterial virulence” (priority 2016, dated 2019) are described below.

T2 sequence (P54292 whole entry): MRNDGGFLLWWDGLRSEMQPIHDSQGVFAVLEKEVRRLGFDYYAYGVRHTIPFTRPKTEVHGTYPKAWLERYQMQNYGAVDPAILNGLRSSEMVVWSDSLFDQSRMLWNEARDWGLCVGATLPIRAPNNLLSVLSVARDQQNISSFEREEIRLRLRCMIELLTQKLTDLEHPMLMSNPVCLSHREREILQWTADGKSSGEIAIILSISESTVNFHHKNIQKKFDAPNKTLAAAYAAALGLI
T1 sequence (P25084 whole entry): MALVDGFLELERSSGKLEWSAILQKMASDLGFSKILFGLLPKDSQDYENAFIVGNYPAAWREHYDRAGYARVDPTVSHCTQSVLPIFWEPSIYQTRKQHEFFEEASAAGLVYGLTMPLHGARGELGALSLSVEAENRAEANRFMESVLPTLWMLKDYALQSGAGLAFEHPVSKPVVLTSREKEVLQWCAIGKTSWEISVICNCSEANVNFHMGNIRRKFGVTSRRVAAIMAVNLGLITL

With `O=C(N[C@H]1CCOC1=O)C1CCCC1` [compound 3], the “Activation [%] LasR” value in test [1] is recorded as −4%. The “Activation [%] RhlR” value in test [2] came to 91%. For the same molecule, the “pyocyanin production, single compound screens” value in test [3] is given as “blocked pyocyanin production under nearly all of the environmental conditions tested”. Besides, the “rhamnolipid production, single compound screens” value in test [4] was “induced additional rhamnolipid and elastase B production”. The “elastase B production, single compound screens” value in test [5] was “induced additional rhamnolipid and elastase B production”.
